Laboratory results as given in patent US12606520B2, “Calpain-2 inhibitor compounds and methods of treatment” (WESTERN UNIVERSITY OF HEALTH SCIENCES, priority 2020, dated 2026).

Assays:
TUNEL-positive cells = assay: TUNEL staining of brain 24 h after TBI in WT mice; assay type: in vivo
Description: Quantification of TUNEL staining 24 h after TBI plus i.p. injection of NA112 at 0.1 or 1.0 mg/kg. Total numbers of TUNEL-positive cells in 3 coronal sections (Bregma 0.50, −0.58, −1.58 mm) of each brain were counted and averaged. Results are means S.E.M. of 3 animals. * p<0.05 vs Vehicle. One-way ANOVA followed by Bonferroni test.
Vehicle (control liposomes) or 0.1 or 1 mg/kg of NA112 dissolved in liposomal formulation was injected 1 h after TBI in WT mice. Animals were sacrificed 24 h later and brains were stained with TUNEL staining to analyze the extent of cell death.
The number of TUNEL-positive cells in images similar to those shown in FIG. 12 was quantified (FIG. 13). Results in FIG. 13 are Means±S.E.M. of 3 different animals.
Quantification of TUNEL staining 24 h after TBI plus i.p. injection of WT mice with NA184 at indicated doses 1 h after TBI. Total numbers of TUNEL-positive cells in 3 coronal sections (Bregma 0.50, −0.58, −1.58 mm) of each brain were counted and averaged. Results are means±S.E.M. of 3-6 animals. * p<0.05, ** p<0.01, vs Vehicle. One-way ANOVA followed by Bonferroni test (FIG. 20).

calpain-2 = molecular target: T1, calpain-2 (Mus musculus, UniProt O08529); assay: Calpain-2 activity after TBI in mice (i.p. dosing); assay type: in vivo; set-up: from tissue; host or cells: cerebellar P2 fractions / brain of wild-type mice after TBI
T1 sequence (O08529 1-700): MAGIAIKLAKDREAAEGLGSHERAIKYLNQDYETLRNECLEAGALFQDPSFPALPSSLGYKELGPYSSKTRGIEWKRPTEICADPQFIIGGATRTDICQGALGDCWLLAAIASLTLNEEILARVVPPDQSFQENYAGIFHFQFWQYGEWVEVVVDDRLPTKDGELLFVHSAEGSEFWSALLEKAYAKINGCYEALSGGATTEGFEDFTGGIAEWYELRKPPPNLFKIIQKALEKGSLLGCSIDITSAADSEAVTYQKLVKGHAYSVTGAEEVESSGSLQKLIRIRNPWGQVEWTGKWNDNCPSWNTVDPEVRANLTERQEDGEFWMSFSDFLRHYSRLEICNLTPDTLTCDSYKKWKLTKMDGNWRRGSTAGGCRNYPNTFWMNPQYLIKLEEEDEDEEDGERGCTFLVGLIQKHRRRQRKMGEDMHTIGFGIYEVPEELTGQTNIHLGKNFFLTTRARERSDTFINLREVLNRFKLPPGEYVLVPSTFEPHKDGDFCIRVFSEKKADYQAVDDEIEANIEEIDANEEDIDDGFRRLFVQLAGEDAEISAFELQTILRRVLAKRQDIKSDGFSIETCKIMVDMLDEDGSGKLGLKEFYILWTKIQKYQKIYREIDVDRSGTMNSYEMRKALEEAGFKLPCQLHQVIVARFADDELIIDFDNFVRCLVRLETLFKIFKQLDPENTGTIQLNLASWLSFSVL
T1 sequence (O88456 1-268 partner): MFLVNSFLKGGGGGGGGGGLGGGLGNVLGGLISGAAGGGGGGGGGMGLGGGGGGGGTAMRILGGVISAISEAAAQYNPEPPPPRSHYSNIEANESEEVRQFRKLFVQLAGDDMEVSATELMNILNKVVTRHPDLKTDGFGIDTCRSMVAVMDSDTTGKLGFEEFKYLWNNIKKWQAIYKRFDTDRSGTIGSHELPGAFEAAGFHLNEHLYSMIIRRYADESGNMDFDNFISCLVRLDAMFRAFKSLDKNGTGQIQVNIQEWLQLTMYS
Description: Calpain activity in cerebellar P2 fractions was measured 24 h after traumatic brain injury (TBI) in adult wild-type mice and the assay results for calpain-1 and calpain-2 are shown in FIG. 2. 0.1 or 1 mg/kg of NA112 was injected intraperitoneally 1 h after TBI. Each measurement of in vivo selectivity was obtained as follows: • Calpain-1 activity: Calpain activity with 20 μM Ca^2+. Normalized to Vehicle. • Calpain-2 activity: Calpain activity with 5 mM Ca^2+ minus Calpain activity with 20 μM Ca^2+. Results are means S.E.M. of 3 experiments.
Calpain activity in cerebellar P2 fractions was measured 24 h after TBI in adult WT mice, and vehicle or 0.1 or 1 mg/kg of NA112 (12) dissolved in DMSO or liposomal formulation (lipo) was injected intraperitoneally 1 h after TBI. […]
Vehicle (DMSO or liposomes) or 0.1 or 1 mg/kg of NA112 (12) dissolved in DMSO or liposomal formulation (lipo) was injected intraperitoneally 1 h after TBI in WT mice. Calpain activity was measured 24 h later in cerebellar P2 fractions. Calpain-1 activity was measured in the presence of 20 μM calcium and calpain-2 activity was measured as the difference between calpain activity measured in the presence of 5 mM calcium and that measured in the presence of 20 μM calcium (FIG. 11). In both cases, calpain activity was normalized to the values measured in vehicle-treated mice. […]

Compound	ED50 (TUNEL-positive cells; Mus musculus, ip, i.p. 1 h after TBI, DMSO solution, TUNEL 24 h after TBI) [mg/kg]	Calpain-2 inhibition in brain, male and female mice (calpain-2; 1 mg/kg i.p., 24 h after TBI)	TUNEL staining (TUNEL-positive cells; liposomal formulation, 0.1 or 1 mg/kg 1 h after TBI, 24 h later)	Calpain-2 inhibition, DMSO vs liposomes (calpain-2; 0.1 or 1 mg/kg i.p. 1 h after TBI, cerebellar P2 fractions 24 h after TBI)
CCC(NC(=O)[C@H](CC(C)C)NC(=O)NCc1ccccc1)C(=O)C(=O)NCc1cccc(Cl)c1OC (stereo partly drawn) [NA184, (2S)-2-(3-benzylureido)-N-(1-((3-chloro-2-methoxybenzyl)amino)-1,2-dioxopentan-3-yl)-4-methylpentanamide]	~0.13	significantly inhibited calpain-2		
CCC(NC(=O)[C@H](CC(C)C)NC(=O)NCc1ccccc1)C(=O)C(=O)NCc1cc(OC)cc(OC)c1 (mixture of isomers) [NA112, (2S)-2-(3-benzylureido)-N-(1-((3,5-dimethoxybenzyl)amino)-1,2-dioxopentan-3-yl)-4-methylpentanamide]			decrease in TUNEL staining	same degree of calpain-2 inhibition
